Measured values taken from patent publication US9783859B2, “Method of screening and quantifying various enzymatic activities using artificial genetic circuits” (KOREA RESEARCH INSTITUTE OF BIOSCIENCE AND BIOTECHNOLOGY, priority 2009, dated 2017).
Like-named read-outs stand apart in the source and are kept apart here.

How the values were obtained:
[1] = test system: Pseudomonas sp. methyl parathion hydrolase (MPH); assay: sensing of methyl parathion hydrolase activity with pGESS-EGFP (III); format: cell-based; conditions: 0.1 mM substrate, GFP emission at 510 nm
Experimental: The cells were lysed, and the supernatant was analyzed with a fluorescence spectrometer (Varian, Australia), thereby examining whether the emission wavelength of GFP was detected at 510 nm.

[2] = test system: genetic circuit pGESS-Km(II); conditions: phenol 1-1000 μM
Experimental: (§1) Next, the genetic circuits (pGESS-Cm(II), pGESS-Tc(II), and pGESS-Km(II)) comprising the antibiotic resistance gene as the reporter were used to perform quantitative antibiotic resistance analysis. A single colony of E. coli JM109(DE3) containing each genetic circuit comprising chloramphenicol, tetracycline or kanamycin resistance gene as a reporter was inoculated into liquid medium containing 50 μg/ml of ampicillin and was cultured with shaking overnight at 37° C. The pre-culture was 10^6-fold diluted, and 100 μl of the dilution was plated on each of selective media and cultured overnight at 37° C. for 3 days. The number of colonies produced on the solid medium was counted, thereby performing the resistance test. 50 μg/ml of ampicillin and various concentrations (0, 10, 20 and 30 μg/ml) of each of selective antibiotics (chloramphenicol, tetracycline and kanamycin resistance) were added to each selective medium. Also, a transcriptional activator, that is, phenol, was added at a concentration of 1-1000 μM.

[3] = test system: genetic circuit pGESS-Tc(II); conditions: phenol 1-1000 μM
Experimental: as §1

[4] = test system: genetic circuit pGESS-Cm(II)
Experimental: as §1

[5] = test system: genetic circuit pGESS-EGFP (III), mutant dmpR (E135K); format: cell-based, E. coli
Experimental: The colony introduced with the pGESS-EGFP (II) or pGESS-EGFP (III) genetic circuit was inoculated into LB medium and was cultured with shaking at 37° C. Next day, the culture was inoculated into LB medium to a concentration of 1% (v/v) and was cultured with shaking at 37° C. When the cell growth (OD600/ml) reached about 2.5, the cultured cells were recovered and subjected to activation of the genetic circuit. For activation of the genetic circuit, the recovered bacterial cells were washed once with M9 medium, after which they were suspended in M9 (acetate) media containing various concentrations of phenol and were cultured with shaking. Each medium was supplemented with 50 μg/ml of ampicillin as a selection marker. The bacterial cell growth was predicted by measuring absorbance (OD600) using a UV/VIS spectrometer (Ultrospec 3000, Pharmacia Biotech, Sweden), and the fluorescence intensity was measured using a fluorescence plate reader (Multi-label reader, PerkinElmer, USA).
Next, the measurement of sensitivities to 2-nitrophenol and 4-nitrophenol was performed. The measurement was performed in the same manner as above, and various concentrations of 2-nitrophenol and 4-nitrophenol in addition to phenol were added and allowed to react.

[6] = test system: artificial genetic circuit pGESS-EGFP (I) (dmpR); format: cell-based, E. coli DH5α; conditions: 0.1-1000 μM tested, overnight at 30° C., LB medium
Experimental: The signals of the artificial genetic circuit for phenolic compounds were quantitatively analyzed. Specifically, a single colony of E. coli DH5α containing pGESS-EGFP (I) was inoculated into LB liquid medium containing 50 μg/ml of ampicillin and was cultured with shaking overnight at 37° C. The culture was inoculated into LB medium containing 50 μg/ml of ampicillin to a concentration of 1% (v/v), and 0.1-1000 μM of each of phenol, o-chlorophenol, m-chlorophenol, o-nitrophenol, catechol and resorcinol was added thereto and cultured with shaking overnight at 30° C. The cells were lysed, and the supernatant was analyzed by a fluorescence spectrometer (Varian, Australia), thereby measuring the fluorescence of GFP at 510 nm.

[7] = test system: phenol-sensing artificial genetic circuit pGESS-EGFP(I) (dmpR); conditions: solid medium, 30° C. 36 hours, fluorescence microscope
Experimental: In order to quantitatively analyze the function of the artificial genetic circuit (constructed in Example 1) to sense phenol, a single colony of recombinant E. coli BL21 containing pGESS-EGFP(I) was inoculated into LB liquid medium containing 50 μg/ml of ampicillin and was cultured with shaking overnight at 37° C.

[8] = test system: phenol-sensing artificial genetic circuit pGESS-EGFP(I) (dmpR)
Experimental: The dependence of sensitivity of the artificial genetic circuit on the concentration of the inducer phenol was confirmed using a fluorescence spectrometer. For this purpose, a single colony of recombinant E. coli containing pGESS-EGFP(I) was inoculated into LB liquid medium supplemented with 50 μg/ml of ampicillin and was cultured with shaking overnight at 37° C. The above pre-culture was inoculated into LB liquid medium containing 50 μg/ml of ampicillin and various concentrations (0.1-1000 μM) of phenol to a concentration of 1% (v/v) and was cultured with shaking at 30° C. for 20 hours. To analyze the intensity of fluorescence, the cells were disrupted, and the intensity of fluorescence in the supernatant was analyzed using a fluorescence spectrometer.

[9] = test system: genetic circuit pGESS-EGFP (II)
Experimental: In the present invention, in order to increase the ability of the genetic circuit to sense phenolic compounds, the reaction of the genetic circuit was performed using the optimal medium and carbon source selected in Example 5, and the cell growth step and the step of activating (analyzing) the genetic circuit were separated from each other, thereby attempting the optimization of the sense system. Specifically, the bacterial cells were made healthy using LB medium during growth, and the cells were recovered and the activity of the genetic circuit therein was analyzed in the M9 medium containing acetate as a carbon source.
Specifically, a colony introduced with the genetic circuit was inoculated into LB medium and was cultured with shaking overnight at 37° C., and next day, the culture was inoculated into LB medium at a concentration of 1% (v/v) and was cultured with shaking at 37° C. When the cell growth (OD600/ml) reached about 2.5, the cultured cells were recovered and subjected to activation of the genetic circuit. For activation of the genetic circuit, the recovered bacterial cells were washed once with M9 medium, after they were suspended in M9 (acetate) media containing various concentrations of phenols and were cultured with shaking at 30° C. for 16 hours. Each medium was supplemented with 50 μg/ml of ampicillin as a selective marker. The intensity of fluorescence in cells induced by each concentration of phenol was measured using FACSAria system (Becton Dickinson, US). As a detector, an FSC, SSC, FL1-H (excitation=488 nm, emission=530/30 nm) detector was set, and data obtained by 50,000 sample cells were analyzed using FACSDiVa (Becton Dickinson, USA) (see FIG. 19 C).

[10] = target: T1, C. freundii tyrosine-phenol lyase (TPL) (Citrobacter freundii, UniProt P31013); assay: sensing of tyrosine-phenol lyase activity with pGESS-EGFP (I); format: cell-based; conditions: 1 mM tyrosine, 10 μM PLP, 30° C. 20 hours
T1 construct: expressed in transfected cells; host or cells: E. coli DH5α containing pGESS-EGFP (I), plasmid pEC-TPL
T1 sequence (P31013 whole entry): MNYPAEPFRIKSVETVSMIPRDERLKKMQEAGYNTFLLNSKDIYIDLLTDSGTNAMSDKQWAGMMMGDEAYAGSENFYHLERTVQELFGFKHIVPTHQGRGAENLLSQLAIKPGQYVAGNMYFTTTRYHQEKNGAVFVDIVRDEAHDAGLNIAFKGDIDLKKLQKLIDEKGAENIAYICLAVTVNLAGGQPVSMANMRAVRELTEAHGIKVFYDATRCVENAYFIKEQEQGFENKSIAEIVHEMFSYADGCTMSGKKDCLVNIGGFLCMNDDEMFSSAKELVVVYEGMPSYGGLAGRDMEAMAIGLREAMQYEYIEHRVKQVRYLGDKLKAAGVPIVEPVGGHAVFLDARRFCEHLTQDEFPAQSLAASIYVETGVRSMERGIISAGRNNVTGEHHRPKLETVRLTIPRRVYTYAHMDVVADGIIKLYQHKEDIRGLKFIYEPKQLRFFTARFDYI
Excerpt: The GESS genetic circuit of the present invention can also be used to sense a reaction (phenol-lyase) of liberating phenol from substrates (Ph-C—(R)) comprising carbon coupled to phenol. In the present invention, whether the GESS genetic circuit senses the activity of TPL (enzyme degrading tyrosine into phenol, pyruvic acid and ammonia) was examined in order to verify the effectiveness of TPL. Specifically, C. freundii TPL gene was cloned into pEC11a (obtained by replacing the on of pET11a(+) with ACYC ori) to prepare pEC-TPL which was then introduced into E. coli DH5α containing pGESS-EGFP (I).

[11] = enzymatic properties of novel alkaline phosphatase (pNPP hydrolysis, absorbance at 405 nm); format: biochemical; conditions: 15 minutes, at 80° C. or below
Experimental: The optimum pH and temperature, thermal stability and substrate specificity of the selected alkaline phosphatase and the effect thereof on metal ions were examined. An enzymatic reaction was performed in the following manner. The enzymatic reaction was performed using a mixture of 50 mM diethanolamine, DEA (pH 9.0) buffer, 0.5 mM para-nitrophenylphosphate (pNPP) and the enzyme at 37° C. for 5 minutes. The same amount of 1M NaOH was added to stop the enzymatic reaction, and the amount of nitrophenol produced by the enzymatic reaction was measured. the measurement was performed by measuring the absorbance at 405 nm using a fluorescence plate reader (Victor5, Perkin-Elmer, USA). 1 unit was defined as the amount of enzyme that can produce 1 μmol of para-nitrophenol per minute at 37° C.
In order to examine the optimum pH of the novel alkaline phosphatase, the activities thereof at a pH of 7.0 to 10.5 were compared. At a pH of 7.0 to 8.5, 50 mM Tris-HCl buffer was used, and at a pH of 7.5 to 10.5, 50 mM DEA buffer was used.
In addition, the activities of the enzyme at various temperatures were compared. […] (see FIG. 25B). In addition, in order to examine the thermal inactivation of the enzyme, the enzyme was allowed to stand at various temperatures for 15 minutes, and then the remaining enzymatic activity was measured. […]

Compound: COP(=S)(OC)Oc1ccc([N+](=O)[O-])cc1 [methyl parathion]
- fluorescence in the presence of MPH [1]: strong fluorescence was observed

Compound: Oc1ccccc1 [phenol]
- phenol-dependent kanamycin resistance (colony formation) [2]: the formation of colonies was not sensed
- phenol-dependent tetracycline resistance (colony formation) [3]: quantitative results similar to those in the case of chloramphenicol
- resistance to chloramphenicol ([4]; phenol concentration 100 μM): 40 µg/mL
- resistance to chloramphenicol ([4]; phenol concentration 1 mM): 50 µg/mL
- resistance to chloramphenicol ([4]; phenol concentration of 10 μM): ≤ 20 µg/mL
- sensitivity relative to wild dmpR ([5]; mutant dmpR vs wild dmpR (pGESS-EGFP (II))): about 10 times
- relative sensitivity among phenol, 4-nitrophenol and 2-nitrophenol ([5]; pGESS-EGFP (III)): highest
- concentration range which could be quantitatively sensed ([5]; pGESS-EGFP (III), mutant dmpR, M9 (acetate)): 0.1 to 10 µM
- concentration from which fluorescence started to be sensed [6]: 1 µM
- phenol concentration at which colony fluorescence was observed [7]: more than 1 μM
- phenol concentration at which a clear fluorescent signal was observed ([8]; LB liquid medium, 30° C. 20 hours, fluorescence spectrometer): ≥ 10 µM
- phenol concentration range in which the genetic circuit is quantitatively activated ([8]; pGESS-EGFP(I)): 1 to 1000 µM
- increase of reaction value ([9]; 2-step activity analysis): about 5 times
- sensitivity relative to the previous sensitivity ([9]; 2-step activity analysis): about 10 times
- concentration range of phenol which could be quantitatively analyzed ([9]; 2-step activity analysis, M9 (acetate)): 1 to 10 µM
- phenol concentration that could be sensed by 2-step activity analysis ([9]; M9 (acetate), 30° C. 16 hours): at least 1 μM

Compound: N[C@@H](Cc1ccc(O)cc1)C(=O)O [tyrosine]
- intensity of fluorescence in the cell lysis due to TPL activity [10]: significantly increased

Compound: alkaline phosphatase (BAP) from E. coli: alkaline phosphatase (BAP) from E. coli
- thermal inactivation [11]: not inactivated
